Experimental data as given in patent US20250361214A1, “TRIAZINE LIPIDS, LIPID SYNTHESIS, AND METHODS FOR INHIBITING CANONICAL NFKB TRANSCRIPTIONAL ACTIVITY” (University of Kentucky Research Foundation, priority 2022, published 2025).

Tests used:
canonical NFKB = assay: THP-1-Blue NFKB reporter (SEAP) assay; assay type: cell-based, human; details: THP-1-Blue cells stimulated with TNFα
plasmid DNA = assay: Gel shift assay using plasmid DNA; assay type: binding; details: 1:1 molar ratio cationic lipid and DOPE, agarose gel
Protocol: Gel Shift Assays Using Plasmid DNA. Nanoparticles consisting of a 1:1 molar ratio of cationic lipid/DOPE were rehydrated in a 20 mM HEPES solution at pH 4. […] The gels were visualized and photographed using a Bio-Rad ChemiDoc XR system using the manufacturer's software.

murine macrophages = details: incubation of murine macrophages; cited from earlier work
cIAP = details: cited from earlier work

SMILES: CCCCCCCC/C=C\CCCCCCCC(=O)OC[C@@H](COP(=O)(O)OCCN)OC(=O)CCCCCCC/C=C\CCCCCCCC (stereo in doubt) [DOPE, 1,2-dioleoyl-sn-glycero-3-phosphoethanolamine, reference compound]
- canonical NFKB inhibition (canonical NFKB): exhibited no activity
- N:P ratio at which nucleic acid is complexed / migration inhibited (plasmid DNA): unable to prevent migration

SMILES: CC[C@H]1OC(=O)[C@H](C)[C@@H](O[C@H]2C[C@@](C)(OC)[C@@H](O)[C@H](C)O2)[C@H](C)[C@@H](O[C@@H]2O[C@H](C)C[C@H](N(C)C)[C@H]2O)[C@](C)(O)C[C@@H](C)CN(C)[C@H](C)[C@@H](O)[C@]1(C)O [azithromycin]
- IKKβ expression (murine macrophages): increases the overall expression of IKβ kinase (IKKB)

SMILES: CC[C@H](NC(=O)[C@H](C)NC)C(=O)N1C[C@@H](O)C[C@H]1Cc1c(-c2[nH]c3cc(F)ccc3c2C[C@@H]2C[C@H](O)CN2C(=O)[C@H](CC)NC(=O)[C@H](C)NC)[nH]c2cc(F)ccc12 [birinapant]
- IC50 (cIAP): 50 nM
